Measurements from patent US20140107100A1, “Benzoxazepines as Inhibitors of PI3K/mTOR and Methods of Their Use and Manufacture” (EXELIXIS, INC., priority 2010, published 2014).

Columns and labels:
[1] = target: mTOR/GbL/Raptor (mTORC1) (Homo sapiens, UniProt P42345); experiment: mTOR/GbL/Raptor (mTORC1) ELISA assay, phosphorylation of 4E-BP1; format: biochemical; conditions: 0.2 nM mTORC1, 40 uM ATP, 50 nM NHis-tagged 4E-BP1, 120 minutes; read-out: IC50 in this assay (mTORC1 ELISA)
Summary of the method: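 Phospho-4E-BP1 was quantified by luminescent ELISA (anti-phospho-4E-BP1 IgG, HRP-tagged secondary) after capture of the His-tagged substrate on Ni-chelate plates.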

[2] = target: PI3Kα (Homo sapiens, UniProt P42336); experiment: PI3K biochemical assay, ATP consumption by luciferase-luciferin chemiluminescence; conditions: 3 nM enzyme, 10 μM PIP2, approximately 2 h; read-out: IC50 in the PI3K-alpha assay
Protocol: P13Kα activity was measured as the percent of ATP consumed following the kinase reaction using luciferase-luciferin-coupled chemiluminescence. Reactions were conducted in 384-well white, medium binding microliter plates (Greiner). Kinase reactions were initiated by combining test compounds. ATP, substrate (PIP2), and kinase in a 20 μL volume in a buffer solution. The standard P13Kalpha assay buffer was composed 50 mM Tris, pH 7.5, 1 mM EGTA, 10 mM MgCl2, 1 mM DTT and 0.03% CHAPS. The standard assay concentrations for enzyme, ATP, and substrate were 3 nM, IpM, and 10 μM, respectively. The reaction mixture was incubated at ambient temperature for approximately 2 h. Following the kinase reaction, a 10 μL aliquot of luciferase-luciferin mix (Promega Kinase-Glo) was added and the chemiluminescence signal measured using a Victor2 or EnVision (Perkin Elmer). Total ATP consumption was limited to 40-60% and IC50 values of control compounds correlate well with literature references. Substituting P13Kα with P13Kβ, […], or PI3Kδ, the inhibitory activity of the compounds for the other isoforms of P13-K were measured. For the P13Kβ and P13Kβ assays, enzyme concentrations were 10 nM and 4 nM. respectively. For the P13γ assay, enzyme concentration was 40 nM, the incubation time was 1 h, and the concentration of MgCl2 in the assay buffer was 5 mM.

Chain of PI3Kα (P42336 whole entry): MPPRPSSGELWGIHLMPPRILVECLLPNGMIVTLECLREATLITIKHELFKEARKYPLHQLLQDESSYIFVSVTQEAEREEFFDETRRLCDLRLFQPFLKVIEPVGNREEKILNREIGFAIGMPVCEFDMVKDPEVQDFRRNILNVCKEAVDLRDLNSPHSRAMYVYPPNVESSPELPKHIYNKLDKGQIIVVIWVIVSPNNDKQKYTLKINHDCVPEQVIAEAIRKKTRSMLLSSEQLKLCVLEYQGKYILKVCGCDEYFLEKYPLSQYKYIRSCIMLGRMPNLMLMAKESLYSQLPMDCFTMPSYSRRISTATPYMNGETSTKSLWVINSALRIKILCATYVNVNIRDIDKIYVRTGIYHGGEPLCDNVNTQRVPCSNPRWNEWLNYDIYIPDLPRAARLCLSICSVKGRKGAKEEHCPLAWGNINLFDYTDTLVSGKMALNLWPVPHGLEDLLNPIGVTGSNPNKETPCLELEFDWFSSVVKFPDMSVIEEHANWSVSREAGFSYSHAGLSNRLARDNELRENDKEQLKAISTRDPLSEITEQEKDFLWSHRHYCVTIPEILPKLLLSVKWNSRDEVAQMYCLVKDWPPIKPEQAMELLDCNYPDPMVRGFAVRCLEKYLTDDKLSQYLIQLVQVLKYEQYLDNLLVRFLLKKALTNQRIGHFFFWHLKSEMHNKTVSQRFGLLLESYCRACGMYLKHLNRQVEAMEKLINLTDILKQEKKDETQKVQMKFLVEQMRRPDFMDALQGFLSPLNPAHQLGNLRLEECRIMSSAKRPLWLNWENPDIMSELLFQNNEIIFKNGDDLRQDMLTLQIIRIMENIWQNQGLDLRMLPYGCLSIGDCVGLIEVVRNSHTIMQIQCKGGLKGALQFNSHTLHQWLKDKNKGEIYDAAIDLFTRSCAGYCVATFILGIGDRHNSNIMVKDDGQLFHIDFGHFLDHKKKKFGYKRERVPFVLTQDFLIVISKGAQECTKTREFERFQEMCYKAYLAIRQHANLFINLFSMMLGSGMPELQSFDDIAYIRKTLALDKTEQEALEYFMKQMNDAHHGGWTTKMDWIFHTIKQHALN
Chain of PI3Kα (P27986 whole entry partner): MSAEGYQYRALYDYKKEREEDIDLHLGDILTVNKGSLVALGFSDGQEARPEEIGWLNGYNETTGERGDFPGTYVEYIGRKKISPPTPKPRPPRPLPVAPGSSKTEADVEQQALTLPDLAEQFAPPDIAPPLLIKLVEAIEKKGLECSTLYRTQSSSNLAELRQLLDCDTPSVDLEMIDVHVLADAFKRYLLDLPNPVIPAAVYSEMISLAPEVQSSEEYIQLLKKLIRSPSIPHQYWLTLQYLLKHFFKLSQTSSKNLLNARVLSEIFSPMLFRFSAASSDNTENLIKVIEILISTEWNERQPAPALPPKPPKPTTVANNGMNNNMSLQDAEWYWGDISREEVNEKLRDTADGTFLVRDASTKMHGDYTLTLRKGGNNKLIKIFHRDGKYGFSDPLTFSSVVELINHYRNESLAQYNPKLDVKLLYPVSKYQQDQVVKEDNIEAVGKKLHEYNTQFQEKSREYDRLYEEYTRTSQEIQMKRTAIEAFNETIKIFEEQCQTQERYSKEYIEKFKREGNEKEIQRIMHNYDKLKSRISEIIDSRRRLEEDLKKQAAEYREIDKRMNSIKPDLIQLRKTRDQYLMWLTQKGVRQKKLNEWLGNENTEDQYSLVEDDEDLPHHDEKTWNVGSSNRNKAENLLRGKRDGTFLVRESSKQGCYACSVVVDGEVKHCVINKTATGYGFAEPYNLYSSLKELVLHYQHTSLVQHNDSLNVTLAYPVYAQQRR

| IC50 [1] [nM] | IC50 [2] [nM] | SMILES |
| --- | --- | --- |
| ≤ 100 | 500 to 2500 | CCc1cc(-c2cnc3sc(N)nc3c2)cc2c1OCCN(c1nc(N)nc(C)c1C(C)C)C2 [Compound 17, 6-{4-[2-amino-6-methyl-5-(1-methylethyl)pyrimidin-4-yl]-9-ethyl-2,3,4,5-tetrahydro-1,4-benzoxazepin-7-yl}[1,3]thiazolo[5,4-b]pyridin-2-amine] |
| ≤ 100 | 500 to 2500 | Cc1cc(-c2cnc(O)c(NS(C)(=O)=O)c2)cc2c1OCCN(c1nc(N)nc(C)c1C(C)C)C2 [Compound 19, N-(5-{4-[2-amino-6-methyl-5-(1-methylethyl)pyrimidin-4-yl]-9-methyl-2,3,4,5-tetrahydro-1,4-benzoxazepin-7-yl}-2-hydroxypyridin-3-yl)methanesulfonamide] |
| ≤ 100 | – | CCN(CCF)Cc1nc(C)c(C(C)C)c(N2CCOc3c(C)cc(-c4cnc5sc(N)nc5c4)cc3C2)n1 [Compound 159, 6-{4-[2-{[ethyl(2-fluoroethyl)amino]methyl}-6-methyl-5-(1-methylethyl)pyrimidin-4-yl]-9-methyl-2,3,4,5-tetrahydro-1,4-benzoxazepin-7-yl}[1,3]thiazolo[5,4-b]pyridin-2-amine] |
| ≤ 100 | – | COCCc1nc(C)c(C(C)C)c(N2CCOc3c(C)cc(-c4cnc(Cl)c(NS(C)(=O)=O)c4)cc3C2)n1 [Compound 160, N-[2-chloro-5-(9-methyl-4-{6-methyl-5-(1-methylethyl)-2-[2-(methyloxy)ethyl]pyrimidin-4-yl}-2,3,4,5-tetrahydro-1,4-benzoxazepin-7-yl)pyridin-3-yl]methanesulfonamide] |
| ≤ 100 | – | Cc1cc(-c2cnc(Cl)c(NS(C)(=O)=O)c2)cc2c1OCCN(c1nc(CNCCF)nc(C)c1C(C)C)C2 [Compound 161, N-(2-chloro-5-{4-[2-{[(2-fluoroethyl)amino]methyl}-6-methyl-5-(1-methylethyl)pyrimidin-4-yl]-9-methyl-2,3,4,5-tetrahydro-1,4-benzoxazepin-7-yl}pyridin-3-yl)methanesulfonamide] |
| ≤ 100 | – | Cc1nc2cc(-c3cc(C)c4c(c3)CN(c3nc(N)nc(C)c3C(C)C)CCO4)cnc2[nH]1 [Compound 162, 4-methyl-5-(1-methylethyl)-6-[9-methyl-7-(2-methyl-3H-imidazo[4,5-b]pyridin-6-yl)-2,3-dihydro-1,4-benzoxazepin-4(5H)-yl]pyrimidin-2-amine] |
| ≤ 100 | – | Cc1cc(-c2cnc3nc[nH]c3c2)cc2c1OCCN(c1nc(N)nc(C)c1C(C)C)C2 [Compound 163, 4-[7-(1H-imidazo[4,5-b]pyridin-6-yl)-9-methyl-2,3-dihydro-1,4-benzoxazepin-4(5H)-yl]-6-methyl-5-(1-methylethyl)pyrimidin-2-amine] |
| ≤ 100 | – | Cc1cc(-c2cnc(Cl)c(NS(C)(=O)=O)c2)cc2c1OCCN(c1nc(CNCC(F)F)nc(C)c1C(C)C)C2 [Compound 164, N-(2-chloro-5-{4-[2-{[(2,2-difluoroethyl)amino]methyl}-6-methyl-5-(1-methylethyl)pyrimidin-4-yl]-9-methyl-2,3,4,5-tetrahydro-1,4-benzoxazepin-7-yl}pyridin-3-yl)methanesulfonamide] |
| ≤ 100 | – | Cc1cc(-c2cnc3nc[nH]c3c2)cc2c1OCCN(c1nc(CNCC(F)F)nc(C)c1C(C)C)C2 [Compound 165, 2,2-difluoro-N-({4-[7-(1H-imidazo[4,5-b]pyridin-6-yl)-9-methyl-2,3-dihydro-1,4-benzoxazepin-4(5H)-yl]-6-methyl-5-(1-methylethyl)pyrimidin-2-yl}methyl)ethanamine] |
| ≤ 100 | – | Cc1nc2ncc(-c3cc(C)c4c(c3)CN(c3nc(CNCC(F)F)nc(C)c3C(C)C)CCO4)cc2[nH]1 [Compound 166, 2,2-difluoro-N-({4-methyl-5-(1-methylethyl)-6-[9-methyl-7-(2-methyl-1H-imidazo[4,5-b]pyridin-6-yl)-2,3-dihydro-1,4-benzoxazepin-4(5H)-yl]pyrimidin-2-yl}methyl)ethanamine] |
| 100 to 500 | – | Cc1cc(-c2cnc3nc[nH]c3c2)cc2c1OCCN(c1nc(CN(C)CC(F)F)nc(C)c1C(C)C)C2 [Compound 167, 2,2-difluoro-N-({4-[7-(1H-imidazo[4,5-b]pyridin-6-yl)-9-methyl-2,3-dihydro-1,4-benzoxazepin-4(5H)-yl]-6-methyl-5-(1-methylethyl)pyrimidin-2-yl}methyl)-N-methylethanamine] |
| ≤ 100 | – | Cc1cc(-c2nnc(N)s2)cc2c1OCCN(c1nc(CN(C)CC(F)F)nc(C)c1C(C)C)C2 [Compound 168, 5-{4-[2-{[(2,2-difluoroethyl)(methyl)amino]methyl}-6-methyl-5-(1-methylethyl)pyrimidin-4-yl]-9-methyl-2,3,4,5-tetrahydro-1,4-benzoxazepin-7-yl}-1,3,4-thiadiazol-2-amine] |
| ≤ 100 | – | Cc1cc(-c2nnc(N)s2)cc2c1OCCN(c1nc(CNCC(F)F)nc(C)c1C(C)C)C2 [Compound 169, 5-{4-[2-{[(2,2-difluoroethyl)amino]methyl}-6-methyl-5-(1-methylethyl)pyrimidin-4-yl]-9-methyl-2,3,4,5-tetrahydro-1,4-benzoxazepin-7-yl}-1,3,4-thiadiazol-2-amine] |
| 100 to 500 | – | CCN(Cc1nc(C)c(C(C)C)c(N2CCOc3c(C)cc(-c4nnc(N)s4)cc3C2)n1)CC(F)F [Compound 170, 5-{4-[2-{[(2,2-difluoroethyl)(ethyl)amino]methyl}-6-methyl-5-(1-methylethyl)pyrimidin-4-yl]-9-methyl-2,3,4,5-tetrahydro-1,4-benzoxazepin-7-yl}-1,3,4-thiadiazol-2-amine] |
| 100 to 500 | – | CCN(Cc1nc(C)c(C(C)C)c(N2CCOc3c(C)cc(-c4cnc5nc[nH]c5c4)cc3C2)n1)CC(F)F [Compound 171, N-ethyl-2,2-difluoro-N-({4-[7-(1H-imidazo[4,5-b]pyridin-6-yl)-9-methyl-2,3-dihydro-1,4-benzoxazepin-4(5H)-yl]-6-methyl-5-(1-methylethyl)pyrimidin-2-yl}methyl)ethanamine] |
| ≤ 100 | – | Cc1nc(C)c(C(C)C)c(N2CCOc3c(C)cc(-c4nnc(N)s4)cc3C2)n1 [Compound 172, 5-{4-[2,6-dimethyl-5-(1-methylethyl)pyrimidin-4-yl]-9-methyl-2,3,4,5-tetrahydro-1,4-benzoxazepin-7-yl}-1,3,4-thiadiazol-2-amine] |
| ≤ 100 | – | Cc1cc(-c2nnc(N)s2)cc2c1OCCN(c1ncnc(C)c1C(C)C)C2 [Compound 173, 5-{9-methyl-4-[6-methyl-5-(1-methylethyl)pyrimidin-4-yl]-2,3,4,5-tetrahydro-1,4-benzoxazepin-7-yl}-1,3,4-thiadiazol-2-amine] |
| ≤ 100 | – | Cc1ncc(C)c(N2CCOc3c(C)cc(-c4nnc(N)s4)cc3C2)n1 [Compound 174, 5-[4-(2,5-dimethylpyrimidin-4-yl)-9-methyl-2,3,4,5-tetrahydro-1,4-benzoxazepin-7-yl]-1,3,4-thiadiazol-2-amine] |
| ≤ 100 | – | Cc1ncc(C(C)C)c(N2CCOc3c(C)cc(-c4nnc(N)s4)cc3C2)n1 [Compound 175, 5-{9-methyl-4-[2-methyl-5-(1-methylethyl)pyrimidin-4-yl]-2,3,4,5-tetrahydro-1,4-benzoxazepin-7-yl}-1,3,4-thiadiazol-2-amine] |
| ≤ 100 | – | Cc1cc(-c2nnc(N)s2)cc2c1OCCN(c1ncnc(C)c1C)C2 [Compound 176, 5-[4-(5,6-dimethylpyrimidin-4-yl)-9-methyl-2,3,4,5-tetrahydro-1,4-benzoxazepin-7-yl]-1,3,4-thiadiazol-2-amine] |
| ≤ 100 | – | Cc1cc(-c2nnc(N)s2)cc2c1OCCN(c1ncncc1C(C)C)C2 [Compound 177, 5-{9-methyl-4-[5-(1-methylethyl)pyrimidin-4-yl]-2,3,4,5-tetrahydro-1,4-benzoxazepin-7-yl}-1,3,4-thiadiazol-2-amine] |
| ≤ 100 | – | Cc1cnc(N)nc1N1CCOc2c(C)cc(-c3nnc(N)s3)cc2C1 [Compound 178, 4-[7-(5-amino-1,3,4-thiadiazol-2-yl)-9-methyl-2,3-dihydro-1,4-benzoxazepin-4(5H)-yl]-5-methylpyrimidin-2-amine] |
| ≤ 100 | – | Cc1cc(-c2nnc(N)s2)cc2c1OCCN(c1nc(N)nc(C)c1C)C2 [Compound 179, 4-[7-(5-amino-1,3,4-thiadiazol-2-yl)-9-methyl-2,3-dihydro-1,4-benzoxazepin-4(5H)-yl]-5,6-dimethylpyrimidin-2-amine] |
| ≤ 100 | – | Cc1cc(-c2nnc(N)s2)cc2c1OCCN(c1nc(N)ncc1C(C)C)C2 [Compound 180, 4-[7-(5-amino-1,3,4-thiadiazol-2-yl)-9-methyl-2,3-dihydro-1,4-benzoxazepin-4(5H)-yl]-5-(1-methylethyl)pyrimidin-2-amine] |
| ≤ 100 | – | C=Cc1c(C)nc(N)nc1N1CCOc2c(C)cc(-c3nnc(N)s3)cc2C1 [Compound 181, 4-[7-(5-amino-1,3,4-thiadiazol-2-yl)-9-methyl-2,3-dihydro-1,4-benzoxazepin-4(5H)-yl]-5-ethenyl-6-methylpyrimidin-2-amine] |
